We go through nine sequences from paper PMC8748687 (Nature Communications, 2022).

The target of one assay is TCR RLQ3. Format: binding, human. The settings on record: read-out: KD of TCR RLQ3 for peptide–HLA-A2.
In general, Kd refers to a measure of binding affinity in units of concentration. Consider RLTALNAYV [HKU1-RLT], for which the Kd is above 100 µM.
The same measure, in the same setting: with RLAALNAFV [NL63-RLA] the figure was above 100 µM; with RLTTLNAFV [MERS-RLT], above 100 µM.
Same read-out and setting: with RLAALNVFV [229E-RLA] the figure was above 100 µM.

Another assay concerns TCR YLQ7. Type of assay: binding, human.
Details: not given
In the case of YLAPRTFML [GD_pangolin YLQ ortholog], the “Measured TCR ΔΔG, YLQ7” value was determined as 1.7 kcal/mol.

Staying with this assay, now noted: read-out: KD of TCR YLQ7 for peptide–HLA-A2.
Regarding PLSKRQYLL [HKU1-PLS], the Kd is above 50 µM.
As to PLTSRQYLL [OC43-PLT], the equilibrium dissociation constant (Kd) is above 50 µM.
Consider KLQPLTFLL [MERS-KLQ], for which the Kd is above 50 µM.
Take YLKPTTFML [SARS-YLK]: the Kd was above 50 µM.
